Structures can show the parent of a compound that is named as a salt.
These molecules were tested against T1, Rat brain protein farnesyltransferase (Rattus norvegicus, UniProt Q02293+Q04631) (assay: % inhibition of farnesylation, scintillation proximity assay with biotin-K Ras B fragment). Settings: Table 1; 1 × 10^-5 M.
T1 construct: Rat brain protein farnesyltransferase activity is measured; from tissue; host or cells: rat brain
T1 sequence (Q02293 whole entry, the tested form may be a part, one chain of several): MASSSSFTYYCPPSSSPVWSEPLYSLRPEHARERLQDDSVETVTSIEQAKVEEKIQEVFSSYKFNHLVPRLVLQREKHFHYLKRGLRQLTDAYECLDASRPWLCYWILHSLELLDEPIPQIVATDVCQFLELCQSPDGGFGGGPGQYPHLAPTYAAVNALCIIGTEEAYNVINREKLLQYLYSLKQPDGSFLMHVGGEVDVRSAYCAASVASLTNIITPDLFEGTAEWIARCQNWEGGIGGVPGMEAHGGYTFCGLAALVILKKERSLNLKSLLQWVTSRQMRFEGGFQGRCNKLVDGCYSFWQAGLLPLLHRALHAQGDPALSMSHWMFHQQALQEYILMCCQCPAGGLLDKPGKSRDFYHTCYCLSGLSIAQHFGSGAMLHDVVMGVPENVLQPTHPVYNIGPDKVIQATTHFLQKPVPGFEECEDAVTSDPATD
Assay type: biochemical
In short: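 Scintillation proximity read-out of farnesylation, using a biotinylated K Ras B fragment (0.1 mM final) in place of biotin-lamin. Enzyme purified from rat brain; results given as % inhibition.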
With `CSCC[C@H](NC(=O)c1ccc(CNc2cc(C)cc(C)c2)cc1-c1ccccc1)C(=O)O` [Example 709] the “% inhibition at 1 × 10^-5 M” value was 55%. `CSCC[C@H](NC(=O)c1ccc(CNc2cc(C)on2)cc1-c1ccccc1)C(=O)O` [Example 372] was tested, and the “% inhibition at 1 × 10^-5 M” value was 69%.

Same assay, conditions: Table 2; 1 × 10^-6 M
With `CSCC[C@H](NC(=O)c1ccc(NC(=O)Cc2nccs2)cc1-c1ccccc1)C(=O)O` [Example 163] the “% inhibition at 1 × 10^-6 M” value was 18%. In the case of `Cc1ccccc1-c1cc(CN(C2CC2)C(C)(C)Cc2ccccc2)ccc1C(=O)N[C@@H](CCS(C)(=O)=O)C(=O)O` [Example 319], the “% inhibition at 1 × 10^-6 M” value is reported as 98%. In the case of `CSCC[C@H](NC(=O)c1ccc(CNc2ccc(C(O)(C(F)(F)F)C(F)(F)F)cc2)cc1-c1ccccc1)C(=O)O` [Example 693], the “% inhibition at 1 × 10^-6 M” value is reported as 53%. For `CCS(=O)(=O)C[C@H](CC1CCCCC1)NCc1ccc(C(=O)N[C@@H](CCSC)C(=O)O)c(-c2ccccc2C)c1` [Example 620], the “% inhibition at 1 × 10^-6 M” value was 98%. With `CSCC[C@H](NC(=O)c1ccc(CNCCSC(C)(C)C)cc1-c1ccccc1)C(=O)O` [Example 627] the “% inhibition at 1 × 10^-6 M” value was 85%. In the case of `CSCC[C@H](NC(=O)c1ccc(CNc2ccccc2CCO)cc1-c1ccccc1)C(=O)O` [Example 671], the “% inhibition at 1 × 10^-6 M” value is reported as 36%. In the case of `CSCC[C@H](NC(=O)c1ccc(CN(C)C(CC2CCCCC2)C(=O)N2CCCCC2)cc1-c1ccccc1C)C(=O)O` (stereo partly drawn) [Example 301], the “% inhibition at 1 × 10^-6 M” value is reported as 98%. For `CSCC[C@H](NC(=O)c1ccc(CNc2ccc(-c3nc4ccccc4s3)cc2)cc1-c1ccccc1)C(=O)O` [Example 703], the “% inhibition at 1 × 10^-6 M” value was 40%. With `CSCC[C@H](NC(=O)c1ccc(CN(CCC#N)Cc2ccccc2)cc1-c1ccccc1)C(=O)O` [Example 649] the “% inhibition at 1 × 10^-6 M” value was 86%. In the case of `CSCC[C@H](NC(=O)c1ccc(CN(CCc2ccccc2)Cc2ccccc2)cc1-c1ccccc1C)C(=O)O` [Example 513], the “% inhibition at 1 × 10^-6 M” value is reported as 96%. For `CSCC[C@H](NC(=O)c1ccc(CN(Cc2ccccc2)c2ccccc2)cc1-c1ccccc1C)C(=O)O` [Example 406], the “% inhibition at 1 × 10^-6 M” value was 95%. In the case of `CSCC[C@H](NC(=O)c1ccc(CN(C(=O)OC(C)(C)C)C(CC2CCCCC2)CC2CCCCC2)cc1-c1ccccc1C)C(=O)O` [Example 886], the “% inhibition at 1 × 10^-6 M” value is reported as 35%. With `CSCC[C@H](NC(=O)c1ccc(S(=O)(=O)NCCCn2ccnc2)cc1-c1ccccc1C)C(=O)O` [Example 777] the “% inhibition at 1 × 10^-6 M” value was 83%.

Same assay, conditions: Table 3; 1 × 10^-7 M
In the case of `CSCC[C@H](NC(=O)c1ccc(CN(c2ccccc2)S(=O)(=O)c2ccccc2)cc1-c1ccccc1C)C(=O)O` [Example 769], the “% inhibition at 1 × 10^-7 M” value is reported as 90%. For `CSCC[C@H](NC(=O)c1ccc(NC[C@@H]2C[C@H](S)CN2)cc1-c1ccccc1)C(=O)O` [Example 959], the “% inhibition at 1 × 10^-7 M” value was > 50%. In the case of `CSCC[C@H](NC(=O)c1ccc(CN[C@H](CCCC(C)C)CC2CCCCC2)cc1-c1ccccc1C)C(=O)O` [Example 527], the “% inhibition at 1 × 10^-7 M” value is reported as 97%. In the case of `CSCC[C@H](NC(=O)c1ccc(CN[C@H](CO)C2CCCCC2)cc1-c1ccccc1C)C(=O)O` [Example 520], the “% inhibition at 1 × 10^-7 M” value is reported as 97%. For `CSCC[C@H](NC(=O)c1ccc(CN[C@H](CSC(C)(C)C)CC2CCCCC2)cc1-c1ccccc1C)C(=O)O` [Example 622], the “% inhibition at 1 × 10^-7 M” value was 95%. In the case of `CSCC[C@H](NC(=O)c1ccc(CNC(CC2CCCCC2)CC2CCCCC2)cc1-c1ccccc1C)C(=O)O` [Example 524], the “% inhibition at 1 × 10^-7 M” value is reported as 99%.

Same assay, conditions: Table 4; 1 × 10^-8 M
With `COc1cccc(CN(Cc2ccc(C(=O)N[C@@H](CCSC)C(=O)O)c(-c3ccccc3C)c2)c2ccccc2)c1` [Example 779] the “% inhibition at 1 × 10^-8 M” value was 70%. `CSCC[C@H](NC(=O)c1ccc(CN(Cc2ccccc2)c2cncnc2)cc1-c1ccccc1C)C(=O)O` [Example 836] was tested, and the “% inhibition at 1 × 10^-8 M” value was 95%. `CSCC[C@H](NC(=O)c1ccc(CN(c2ccccc2)S(=O)(=O)c2ccc(C(F)(F)F)cc2)cc1-c1ccccc1C)C(=O)O` [Example 780] was tested, and the “% inhibition at 1 × 10^-8 M” value was 71%. `CSCC[C@H](NC(=O)c1ccc(CN[C@@H](CC2CCCCC2)C(=O)N2CCCCC2)cc1-c1ccccc1C)C(=O)O` [Example 887] was tested, and the “% inhibition at 1 × 10^-8 M” value was 92%. `CSCC[C@H](NC(=O)c1ccc(CN2CCC[C@H]2COc2ccccc2)cc1-c1ccccc1C)C(=O)O` [Example 991] was tested, and the “% inhibition at 1 × 10^-8 M” value was 69%.

Same assay, conditions: read-out: % inhibition at 0.01 μM (**); Table 6; ** footnote 0.01 μM (title: 0.01 mM)
With `CSCC[C@H](NC(=O)c1ccc(COCc2cc(F)cc(F)c2)cc1-c1ccccc1C)C(=O)O` [Example 1226, N-[4-(3,5-trifluorobenzyloxymethyl)-2-(2-methylphenyl)benzoyl]methionine lithium salt] the inhibition at 0.01 µM was 69%. Molecule `CSCC[C@H](NC(=O)c1ccc(COCC2CCCN2C(=O)OCC2CCCCC2)cc1-c1ccccc1C)C(=O)O` (stereo partly drawn) [Example 1129, N-[4-(N-cyclohexylmethoxycarbonylpyrrolin-2-ylmethoxymethyl)-2-(2-methylphenyl)benzoyl]methionine Sodium salt] has an inhibition at 0.01 µM of 92%. With `CSCC[C@H](NC(=O)c1ccc(COCc2ccc(C3CCCCC3)o2)cc1-c1ccccc1C)C(=O)O` [Example 1090, [4-(2-(5-cyclohexylfuranyl)methoxymethyl)-2-(2-methylphenyl)-benzoyl]methionine, lithium salt] the inhibition at 0.01 µM was 81%. For `CSCC[C@H](NC(=O)c1ccc(COC(CC2CCCCC2)c2scnc2C)cc1-c1ccccc1C)C(=O)O` (stereo partly drawn) [Example 1097, N-[4-(1-(4-methylthiazol-5-yl)-2-cyclohexylethoxy)methyl)-2-(2-methylphenyl)benzoyl]methionine lithium salt], the inhibition at 0.01 µM was 80%.

Same assay, conditions: read-out: % inhibition at 0.1 μM (*)
`CSCC[C@H](NC(=O)c1ccc(COC(CCC2CCCCC2)c2cccc(Cl)c2)cc1-c1ccccc1C)C(=O)O` (stereo partly drawn) [Example 1207, N-[4-(1-(3-chlorophenyl)-3-cyclohexylpropan-1-yloxymethyl)-2-(2-methylphenyl)benzoyl]methionine lithium salt] was tested, and the inhibition at 0.1 µM was 91%.

Same assay, conditions: read-out: % inhibition at 0.1 μM (*); Table 6; * footnote 0.1 μM (title: 0.1 mM)
`CSCC[C@H](NC(=O)c1ccc(CO[C@H](COCC2COC(C)(C)O2)CC2CCCCC2)cc1-c1ccccc1C)C(=O)O` (stereo partly drawn) [Example 1346, N-[4-(3-Cyclohexyl-1-(2,2-dimethyl-1,3-dioxolan-4-methanoxy)prop-2-yloxymethyl)-2-(2-methylphenyl)benzoyl]methionine, Lithium Salt] was tested, and the inhibition at 0.1 µM was 94%.

Same assay, conditions: read-out: % inhibition at 1 × 10^-6 M
`CSCC[C@H](NC(=O)c1ccc(COCCCc2ccccc2)cc1-c1ccccc1C)C(=O)O` [Example 595, N-[4-(3-phenylpropoxymethyl)-2-(2-methylphenyl)benzoyl]methionine lithium salt] was tested, and the inhibition at 1 µM was 97%.

Same assay, conditions: read-out: % inhibition at 1 × 10^-7 M
`CSCC[C@H](NC(=O)c1ccc(COCc2cnco2)cc1-c1ccccc1C)C(=O)O` [Example 891, N-[4-(oxazol-5-ylmethoxymethyl)-2-(2-methylphenyl)benzoyl]methionine lithium salt] showed an inhibition at 0.1 µM of 94%. `CSCC[C@H](NC(=O)c1ccc(COC2CCC(NC(=O)OC(C)(C)C)CC2)cc1-c1ccccc1C)C(=O)O` (stereo partly drawn) [Example 817, N-[4-(4-t-butoxycarbonylaminocyclohexyloxymethyl)-2-(2-methylphenyl)benzoyl]methionine lithium salt] was tested, and the inhibition at 0.1 µM was 60%. Work on `CSCC[C@H](NC(=O)c1ccc(COCc2ccc(-c3ccc(C(F)(F)F)cc3)o2)cc1-c1ccccc1C)C(=O)O` [Example 445, N-[4-(5-(4-trifluoromethylphenyl)furan-2-ylmethoxymethyl)-2-(2-methylphenyl)benzoyl]methionine lithium salt] yielded an inhibition at 0.1 µM of 94%. `CSCC[C@H](NC(=O)c1ccc(COCc2ccc(Br)o2)cc1-c1ccccc1C)C(=O)O` [Example 434, N-[4-(5-Bromofuran-2-ylmethoxymethyl)-2-(2-methylphenyl)benzoyl]methionine lithium salt] gave an inhibition at 0.1 µM of 93%.

Same assay, conditions: read-out: % inhibition at 1 × 10^-7 M; Table 3; 1 × 10^-7 M
`CSCC[C@H](NC(=O)c1ccc(CSc2ccc3ccccc3c2)cc1-c1ccccc1C)C(=O)O` [Example 551, N-[4-naphth-2-ylthiomethyl-2-(2-methylphenyl)benzoyl]methionine] gave an inhibition at 0.1 µM of 93%. With `COc1ccccc1CCOCc1ccc(C(=O)N[C@@H](CCSC)C(=O)O)c(-c2ccccc2C)c1` [Example 589, N-[4-(2-(2-methoxyphenyl)ethoxymethyl)-2-(2-methylphenyl)benzoyl]methioninelithium salt] the inhibition at 0.1 µM was 91%. For `CSCC[C@H](NC(=O)c1ccc(COCC2CCC(c3ccc(Cl)cc3)O2)cc1-c1ccccc1C)C(=O)O` (stereo partly drawn) [Example 822, N-[4-(5-syn(4chlorophenyl)tetrahydrofuran-2-ylmethoxymethyl)-2-(2-methylphenyl)benzoyl]methionine lithium salt], the inhibition at 0.1 µM was 93%. `CSCC[C@H](NC(=O)c1ccc(CSc2ccc(F)cc2)cc1-c1ccccc1C)C(=O)O` [Example 740] was tested, and the inhibition at 0.1 µM was 94%.

Same assay, conditions: read-out: % inhibition at 1 × 10^-8 M
For `CSCC[C@H](NC(=O)c1ccc(COCc2ccccc2Cl)cc1-c1ccccc1C)C(=O)O` [Example 930, N-[4-(2-chlorobenzyloxymethyl)-2-(2-methylphenyl)benzoyl]methionine lithium salt], the inhibition at 0.01 µM was 66%. With `CSCC[C@H](NC(=O)c1ccc(COCc2occc2-c2ccc(Cl)cc2)cc1-c1ccccc1C)C(=O)O` [Example 827, N-[4-(3-(4-chlorophenyl)furan-2-ylmethoxymethyl)-2-(2-methylphenyl)benzoyl]methionine lithium salt] the inhibition at 0.01 µM was 77%. Work on `CSCC[C@H](NC(=O)c1ccc(COCc2cccc(Cl)c2)cc1-c1ccccc1C)C(=O)O` [Example 934, N-[4-(3-chlorobenzyloxymethyl)-2-(2-methylphenyl)benzoyl]methionine lithium salt] yielded an inhibition at 0.01 µM of 71%.

Same assay, conditions: read-out: % inhibition at 1 × 10^-8 M; Table 4; 1 × 10^-8 M
With `CSCC[C@H](NC(=O)c1ccc(CO[C@H](CSc2ccccc2)CC2CCCCC2)cc1-c1ccccc1C)C(=O)O` [Example 884, N-[4-(3-Cyclohexyl-1-phenylthiopropan-2-yl)oxymethyl-2-(2-methylphenyl)benzoyl]methionine lithium salt] the inhibition at 0.01 µM was 94%.
